Laboratory results reported in publication PMC7763603, “Structural Basis for Design of New Purine-Based Inhibitors Targeting the Hydrophobic Binding Pocket of Hsp90” (International Journal of Molecular Sciences, 2020).
Read-outs that look alike come from different tables or passages of the source.

Key:
[1] = biological target: T1, human recombinant N-terminal Hsp90α (Homo sapiens, UniProt P07900); assay: Fluorescence polarization competition assay with FITC-GM probe (Reaction Biology Corporation); type: binding; conditions: for IC50: 10-dose, threefold serial dilution starting at 100 μM, mean of two experiments; for inhibition at 10 µM: read-out: Hsp90α % Inhibition @10 μM
T1 construct: human recombinant N-terminal Hsp90α protein; purchased Reaction Biology Corporation (RBC, Malvern, PA, USA; assay service)

MCF-7 cells = assay: MTT antiproliferative assay, MCF-7; type: cell-based, human; conditions: for inhibition at 10 µM / GI50: Homo sapiens, MCF7, 72 h; for inhibition at 10 µM: read-out: MCF-7 % Inh. at 10 μM; for GI50: mean ± SEM of two experiments
Description: The growth inhibitory effects of the test compounds, at 10 µM dose, were determined after 72 h incubation using the 3-(4,5-dimethylthiazol-2-yl)-2,5-diphenyl tetrazolium bromide (MTT) assay. […] Such modest cellular outcomes of those purine derivatives may be attributed to their lower lipophilic characters, which in turn restrict their cellular permeability into cancer cells. […] The 2-phenyloxazole-substituted purine 8 exerted reasonable antiproliferative activity, with GI values of 33.27% and 37.46% against MCF-7 and SK-BR-3 cells, respectively.
(§1) Cytotoxic activity of certain Hsp90 inhibitors against human cancer cell lines (MCF-7, SK-BR-3, and HCT116) was investigated using the MTT assay following the reported procedure. Cells were seeded into 96-well plates at a density of 3000 cells per well (MCF-7, HCT116, SK-BR-3 cells per each well). The compounds were added into cells and incubated for 72 h. Then, absorbance at 450 nm was measured using a Microplate Absorbance Reader (Bio-Rad, Hercules, CA, USA).

SK-BR-3 cells = assay: MTT antiproliferative assay, SK-BR-3; type: cell-based, human; conditions: for inhibition at 10 µM: read-out: SK-BR-3 % Inh. at 10 μM; for GI50: mean ± SEM of two experiments
Description: […] […] Such modest cellular outcomes of those purine derivatives may be attributed to their lower lipophilic characters, which in turn restrict their cellular permeability into cancer cells. […] The 2-phenyloxazole-substituted purine 8 exerted reasonable antiproliferative activity, with GI values of 33.27% and 37.46% against MCF-7 and SK-BR-3 cells, respectively.
as §1

HCT116 cells = assay: MTT antiproliferative assay, HCT116; type: cell-based, human; conditions: for inhibition at 10 µM: read-out: HCT116 % Inh. at 10 μM; for GI50: mean ± SEM of two experiments
Description: The growth inhibitory effects of the test compounds, at 10 µM dose, were determined after 72 h incubation using the 3-(4,5-dimethylthiazol-2-yl)-2,5-diphenyl tetrazolium bromide (MTT) assay.
as §1

[2] = biological target: T2, mHsp90ND (N-terminal domain of mouse Hsp90α) (Mus musculus, UniProt P07901); assay: Isothermal titration calorimetry (ITC); type: binding
T2 construct: Hsp90α (residues 9–225 Swiss Prot entry: P07901); His6 (N); made in house; host or cells: Escherichia coli BL21 (DE3) codon plus RIL
Description: The PCR product was cloned into plasmid pET28a, which encodes a purification tag consisting of the amino acids His6 at the N-terminal of the protein. mHsp90ND was expressed in Escherichia coli (E. coli) BL21 (DE3) codon plus RIL (Stratagene) cell. The cells were lysed by sonication in 50 mM Tris-HCl (pH 7.4), 100 mM NaCl, 2 mM 2-mercaptoethanol, and 0.2 mM phenylmethylsulfonyl fluoride (PMSF). After centrifugation, mHsp90ND in the supernatant was purified by Ni^2+-chelated Hi-trap chelating column, and HiLoad 26/60 200pg column (GE healthcare, Chicago, IL, USA). After the final step, mHsp90ND was stored in 20 mM Tris-HCl (pH 7.4), 100 mM NaCl, and 1 mM dithiothreitol (DTT).
Stock solutions of those compounds were prepared in dimethyl sulfoxide (DMSO) at 100 mM concentration and stored at −20 °C. The ITC buffer contained 20 mM Tris (pH 8.0), 100 mM NaCl, and up to 2% DMSO. […] The experimental raw data were corrected for dilution by subtracting the values for buffer alone and then fit by a one-site binding model. Titration data were fit using a nonlinear least squares curve-fitting algorithm with three floating variables: stoichiometry, binding constant (KD), and change of enthalpy of interaction.

Hsp90α = Hsp90α (Homo sapiens, UniProt P07900); assay: Colorimetric determination of ATPase activity of Hsp90; type: biochemical; conditions: 50 µM compound, 30 min, compared to positive control with Hsp90α, duplicate
Description: The reaction was terminated by adding 200 μL reagent buffer. Followed by incubation with reagent buffer for 30 min at the room temperature, the absorbance was measured at 620 nm using a Biotek-Synergy Neo-Plate Reader (BioTek Instruments, Winooski, VT, USA).

[3] = tested on: HSP90 client proteins (EGFR, Akt), Hsp70 in MCF7 cells; assay: Western blot of HSP90 client proteins and Hsp70 in MCF7 cells; type: cell-based, human; conditions: 24 h
Description: Furthermore, the effect of compound 14 on cellular biomarkers of the HSP90 inhibition was evaluated to obtain insights about the molecular mechanisms triggering its anticancer activity. MCF7 cells were incubated with various doses of compound 14 (0.5, 1, 5, 10, and 20 μM) for 24 h, and the expression levels of HSP90 client proteins (EGFR, Akt, and Cdk4), Hsp90, HSP70, and glyceraldehyde-3-phosphate dehydrogenase (GAPDH) were determined by Western blot analysis (Figure 6).
MCF7 cells were seeded in 60 mm culture dishes, incubated overnight, and treated with the indicated concentrations of compound 14 or geldanamycin for 24 h. Cells were then harvested and lysed on ice by radioimmunoprecipitation assay (RIPA) buffer (23 mM Tris-HCl (pH 7.6), 130 mM NaCl, 1% nonidet P-40 (NP-40), 1% sodium deoxycholate, 0.1% SDS) supplemented with protease and phosphatase inhibitor cocktails, and […] of lysate perlane was separated by SDS-PAGE, followed by transferring to a polyvinylidene fluoride (PVDF) membrane (Bio-Rad, Hercules, CA, USA). The membrane was blocked with 5% skim milk in TBS-T, and then incubated with the corresponding primary antibody (EGFR, Akt, Hsp90, Hsp70, or GAPDH). After binding of an appropriate secondary antibody (Santa Cruz, CA, USA) coupled to horseradish peroxidase, proteins were visualized by enhanced chemiluminescence (ECL) according to the instructions of the manufacturer (GE healthcare, Chicago, IL, USA).

[4] = parameters: method as in PMID 22938030; conditions: in mice; cited from earlier work
[5] = single dose 10 μM, duplicate, FITC-GM probe
[6] = Homo sapiens, SK-BR-3, 72 h, 10 μM
[7] = Homo sapiens, HCT-116, 72 h, 10 μM
[8] = ITC, 25 °C, one-site binding model
[9] = ITC, 25 °C, one-site binding model, read-out: KD

`CC(C)c1cc(Cn2cnc3c(Cl)nc(N)nc32)on1` [Compound 6c, 6-Chloro-9-((3-isopropylisoxazol-5-yl)methyl)-9H-purin-2-amine] gave an IC50 ([1]; FITC-GM probe) of 203 nM, an inhibition at 10 µM [1, 5] of 77.3% and an inhibition at 10 µM (MCF-7 cells; 10 μM) of 11.9%. The inhibition at 10 µM (SK-BR-3 cells; [6]) was 33.2%, the inhibition at 10 µM (HCT116 cells; [7]) was -0.6% and the “∆H” value ([2]; ITC, 25 °C) was -15.8 ± 0.5 kcal/mol. The “∆S” value ([2]; ITC, 25 °C) was −24.8 cal/mol/deg, the “N (binding stoichiometry)” value [2, 8] was 1.00 and the Kd [2, 9] was 680 nM.
In the case of `Nc1nc(Cl)c2c(ncn2Cc2cnc(-c3ccccc3)o2)n1` [Compound 9, 6-Chloro-7-((2-phenyloxazol-5-yl)methyl)-7H-purin-2-amine], the “Hsp90α % Inhibition @10 μM” value [1, 5] is reported as “fluorescence background that interfered with the assay”.
In the case of `Cc1ccc(-c2[nH]nnc2Cn2cnc3nc(N)nc(Cl)c32)cc1` [Compound 13, 6-Chloro-7-((5-(p-tolyl)-1H-1,2,3-triazol-4-yl)methyl)-7H-purin-2-amine], the “Hsp90α % Inhibition @10 μM” value [1, 5] is reported as “fluorescence background that interfered with the assay”.
For `CC(C)(C)C1=NOC(Cn2cnc3c(Cl)nc(N)nc32)C1` (centres unmarked) [Compound 4b, 9-((3-(tert-Butyl)-4,5-dihydroisoxazol-5-yl)methyl)-6-chloro-9H-purin-2-amine], the inhibition at 10 µM [1, 5] was 35.4%, the inhibition at 10 µM (HCT116 cells; [7]) was less than 30% and the “∆H” value ([2]; ITC, 25 °C) was -19.8 ± 3.29 kcal/mol. The “∆S” value ([2]; ITC, 25 °C) was −44.5 cal/mol/deg, the “N (binding stoichiometry)” value [2, 8] was 1.17 and the Kd [2, 9] was 15600 nM. It also gave a melting point of 198.3 to 200.8 °C.
Work on `CCOC(=O)c1cc(Cn2cnc3c(Cl)nc(N)nc32)no1` [Compound 7, Ethyl 3-((2-amino-6-chloro-9H-purin-9-yl)methyl)isoxazole-5-carboxylate] yielded an inhibition at 10 µM [1, 5] of 14.8%.
Compound `COc1c(C)cnc(Cn2cnc3c(Cl)nc(N)nc32)c1C` [BIIB021, reference compound] has an inhibition at 10 µM (MCF-7 cells; 10 μM) of 84.8%, a GI50 (MCF-7 cells) of 392 ± 30 nM and an inhibition at 10 µM (SK-BR-3 cells; [6]) of 71.9%. The GI50 (SK-BR-3 cells; Homo sapiens, SK-BR-3, 72 h) was 347 ± 23 nM and the inhibition at 10 µM (HCT116 cells; [7]) was 86.2%.
With `CC(C)(C)c1cc(Cn2cnc3c(Cl)nc(N)nc32)on1` [Compound 6b, 9-((3-(tert-Butyl)isoxazol-5-yl)methyl)-6-chloro-9H-purin-2-amine] the “potency relative to isoxazoline congener 4b (from % inhibition)” value ([1]; 10 μM, FITC-GM probe) was 2.7 fold, the IC50 ([1]; FITC-GM probe) was 1760 nM and the inhibition at 10 µM [1, 5] was 95.8%. The inhibition at 10 µM (MCF-7 cells; 10 μM) was 15.7%, the inhibition at 10 µM (SK-BR-3 cells; [6]) was 45.8% and the GI50 (SK-BR-3 cells; Homo sapiens, SK-BR-3, 72 h) was 26000 ± 1360 nM. The inhibition at 10 µM (HCT116 cells; [7]) was 26%, the “∆H” value ([2]; ITC, 25 °C) was -14.5 ± 0.4 kcal/mol and the “∆S” value ([2]; ITC, 25 °C) was −19.4 cal/mol/deg. For the same compound, the “N (binding stoichiometry)” value [2, 8] was 0.97 and the Kd [2, 9] was 440 nM.
In the case of “6-Chloro-9-((2-phenyloxazol-5-yl)methyl)-7H-purin-2-amine [Compound 8]”, the “Hsp90α % Inhibition @10 μM” value [1, 5] is reported as 48.7%, the “MCF-7 % Inh. at 10 μM” value (MCF-7 cells; 10 μM, 72 h) is reported as 33.27% and the “SK-BR-3 % Inh. at 10 μM” value (SK-BR-3 cells; 10 μM, 72 h) is reported as 37.46%. For the same compound, the GI50 (SK-BR-3 cells; 72 h) was 22500 ± 700 nM, the “HCT116 % Inh. at 10 μM” value (HCT116 cells; 10 μM, 72 h) was 19.19% and the GI50 (HCT116 cells; 72 h) was 23400 ± 2940 nM.
In the case of `Cc1ccc(Cn2cnc3c(Cl)nc(N)nc32)cc1` [Compound 14, 6-Chloro-9-(4-methylbenzyl)-9H-purin-2-amine], the IC50 ([1]; FITC-GM probe) is reported as 1000 nM, the inhibition at 10 µM [1, 5] is reported as 95.4% and the inhibition at 10 µM (MCF-7 cells; 10 μM) is reported as 55.1%. For the same compound, the GI50 (MCF-7 cells) was 16200 ± 710 nM, the inhibition at 10 µM (SK-BR-3 cells; [6]) was 60.9% and the GI50 (SK-BR-3 cells; Homo sapiens, SK-BR-3, 72 h) was 15200 ± 2080 nM. For the same compound, the inhibition at 10 µM (HCT116 cells; [7]) was 46.5%, the “∆H” value ([2]; ITC, 25 °C) was -17.8 ± 0.2 kcal/mol and the “∆S” value ([2]; ITC, 25 °C) was −30.5 cal/mol/deg. For the same compound, the “N (binding stoichiometry)” value [2, 8] was 0.89, the Kd [2, 9] was 410 nM and the activity at 50 µM (Hsp90α) was 83.6%. For the same compound, the EGFR expression level ([3]; 10 μM) was “remarkably decreased”, the Akt expression level ([3]; 20 μM) was “remarkably decreased” and the Hsp70 expression level ([3]; 0.5-20 μM, dose-dependent) was “upregulated”.
For `Cc1ccc(-c2[nH]nnc2Cn2cnc3c(Cl)nc(N)nc32)cc1` [Compound 12, 6-Chloro-9-((5-(p-tolyl)-1H-1,2,3-triazol-4-yl)methyl)-9H-purin-2-amine], the “Hsp90α % Inhibition @10 μM” value [1, 5] was “fluorescence background that interfered with the assay”.
With `Cc1ccc(C#CCn2cnc3nc(N)nc(Cl)c32)cc1` [Compound 11, 6-Chloro-7-(3-(p-tolyl)prop-2-yn-1-yl)-7H-purin-2-amine] the “Hsp90α % Inhibition @10 μM” value [1, 5] was “fluorescence background that interfered with the assay”.
Compound `Cc1ccc(C#CCn2cnc3c(Cl)nc(N)nc32)cc1` [Compound 10, 6-Chloro-9-(3-(p-tolyl)prop-2-yn-1-yl)-9H-purin-2-amine] has an inhibition at 10 µM [1, 5] of 22.2%.
`C=CCNC1=C2C[C@@H](C)C[C@H](OC)[C@H](O)[C@@H](C)/C=C(\C)[C@H](OC(N)=O)[C@@H](OC)/C=C\C=C(/C)C(=O)NC(=CC1=O)C2=O` [Compound 17-AAG, Allyl-aminogeldanamycin, reference compound] gave an inhibition at 10 µM [1] of 100%, an inhibition at 10 µM (MCF-7 cells; 10 μM) of 79.7% and a GI50 (MCF-7 cells) of 498 ± 60 nM. For the same compound, the inhibition at 10 µM (SK-BR-3 cells; [6]) was 74.4%, the GI50 (SK-BR-3 cells; Homo sapiens, SK-BR-3, 72 h) was 140 ± 12 nM and the inhibition at 10 µM (HCT116 cells; [7]) was 88.9%. For the same compound, the GI50 (HCT116 cells; Homo sapiens, HCT-116, 72 h) was 205 ± 9 nM, the Kd [2] was 2900 nM and the “N (binding stoichiometry)” value [2] was 0.98. The “∆H” value [2] was -8.6 ± 0.4 kcal/mol and the “∆S” value [2] was −3.66 cal/mol/deg.
In the case of `COc1c(C)cnc(Cn2cc(C#CCC(C)(C)O)c3c(Cl)nc(N)nc32)c1C` [EC144], the “efficacy relative to BIIB021” value [4] is given as “approximately 20 fold”.
